Measurements published in ChEMBL document CHEMBL3507680, “University of Dundee, Gates Library screen for HepG2 cell viability”.

Test: Human HepG2 cell viability assay in 384 well format
Assay type: toxicity, cell-based
Set-up: dose 125 nL, time 70.5 hour; cytotoxicity at 70.5 h: concentration not given beside the values
Settings: HepG2 cells, read-out: Inhibition

Structure (SMILES) | cytotoxicity at 70.5 h [%]
CC1CCN(C(=O)c2cn(-c3cc(N4CCOCC4)ncn3)cn2)CC1 | -14
COc1cccc(C(O)CN2CCN(c3cccc(C)c3)CC2)c1 (stereo not given) | 0.851
Cc1ccccc1-c1csc2c(=O)[nH]c(N3CCCC(C(=O)O)C3)nc12 (stereo not given) | 14.6
O=C(Cc1cc(-c2ccc3c(c2)OCO3)on1)NC1CCCC1 | -8.33
Cc1cc(C(=O)N2CCN(c3nc4c(C(C)C)cccc4s3)CC2)on1 | 32
CCOc1nn(CC)cc1-c1nnc(SCC)n1C | -12.3
CCOCCSc1nnc(-c2cn(CC)nc2OCC)n1C | -7.58
CCn1nnc2c1CCN(C(=O)c1ccc3c(c1)OCO3)C2COC (stereo not given) | 10.7
CN(C)C(=O)c1ccn(-c2ccc3ccccn23)n1 | -4.81
COCCN1CCC2(CCCN(c3ncc(F)cn3)C2)C1 (stereo not given) | -3.02
CC(C)CNC(=O)N1CCOC2(CCNCC2)C1 | -3.81
O=c1cc(CN2CCCC2)nc2n1CCCN(Cc1ccco1)C2 | -2.44
O=C(c1nc2c(s1)CCCN2CC1CC1)N1CCOCC1 | 4.5
COCCn1cc(-c2cc(C(=O)N3CCCC3)c3ccccn23)nc1C | -0.704
CS(=O)(=O)N1CCOC2(CCCN(c3ncc(F)cn3)C2)C1 (stereo not given) | -2.76
O=C(N1CCCC1)N1CCC2(CC(=O)N(c3ccc4c(c3)OCO4)C2)C1 (stereo not given) | -2.04
OCCN1CCOC2(CCCN(c3ncccn3)C2)C1 (stereo not given) | -2.47
O=C(c1ccno1)N1CCC2(CC(=O)N(c3ccc4c(c3)OCO4)C2)C1 (stereo not given) | -0.613
Cc1nc(NC(C)C)nc2c1CN(Cc1nccn1C)CC2 | 0.21
O=C(c1nc2c(s1)CCCN2CC1CC1)N1CCCC1 | -0.67
Cc1cccc(CO[C@H]2CO[C@@]3(CCN(S(=O)(=O)N(C)C)C3)C2)n1 | 15.2
CC(C)N(C)Cc1noc2c1CN(C(=O)c1cnccn1)CC2 | -1.15
COCCC(=O)N1CC[C@H]2C(=O)N(c3ccsc3)CCO[C@H]2C1 | -1.99
CCNC(=O)CC1CC2(CCN(C(C)=O)CC2)c2cc(F)ccc21 (stereo not given) | -5.07
COCC(=O)N1C[C@@H]2COC[C@]2(COC)C1 | -9.06
COC[C@]12COC[C@H]1CN(C(=O)C1CC(F)(F)C1)C2 | -8.18
CCOCc1cnc2n1CCN(C(=O)Cc1cccs1)C2C (stereo not given) | -7.5

Structure (SMILES) | cytotoxicity at 70.5 h [%]
COC1COC2(CCN(C(=O)c3cnc(C)cn3)CC2)C1 (stereo not given) | -6.81
CCOc1cc(=O)n2c(c1C(=O)OCc1ccc(F)cc1)CCCC2 | -8.82
O=C(NC1CCCC1)N1CCCCC1c1nc(C2CC2)no1 (stereo not given) | -15.1
O=C(NCc1ccco1)N1CCCCC1c1nc(C2CC2)no1 (stereo not given) | -7.19
Nc1nc(N2CCCCC2)ncc1C(=O)NCc1ccc(F)c(Cl)c1 | -20
CC1CCCN(c2ncc(C(=O)NCc3ccc(F)c(Cl)c3)c(N)n2)C1 (stereo not given) | 19.8
CC(C)NC(=O)C1CCN(c2nc3nc[nH]c(=O)c3s2)CC1 | -21.7
O=C(C1CCN(c2nc3nc[nH]c(=O)c3s2)CC1)N1CCCCC1 | -15.6
O=C(NC1CC1)C1CCN(c2nc3nc[nH]c(=O)c3s2)CC1 | -20.8
CCNC(=O)c1cc(OC)c2cc(F)cc(C)c2n1 | -12.9
COc1ccc(-c2c(C)nn3c(=N)c(C#N)n[nH]c23)cc1 | -12.3
Cc1cc(=O)[nH]c(=O)n1COCCOCc1ccccc1 | 25.1
Cn1cnnc1SCc1cc2c(cc1Cl)OCO2 | -20.6
CN(C)CCCNC(=O)c1ccccc1NC(=O)c1cc(Cl)ccc1Cl | -13.9
COc1ccc(OC)c(NC(=O)CSc2ccc3nncn3n2)c1 | -8.56
Cc1n[nH]/c(=N\C(=O)c2c3c(nc4onc(C)c24)CCC3)s1 | -13.7
O=C(CCn1ccc2cc(Br)ccc21)/N=c1\[nH]nc(C2CCCO2)s1 (stereo not given) | -12
COc1ccc(-c2cc(=O)n3c(n2)CCCCC3)cc1 | -10.4
CN(C)c1ccc(-c2cc(=O)n3c(n2)CCCCC3)cc1 | -11
CCOc1ccc(-c2cc(=O)n3c(n2)CCCCC3)cc1 | -5.56
COc1ccc(NC(=O)CSc2nncn2-n2cccc2)c(OC)c1 | -14.5
Cc1ccc(C)c(CSc2nnc(C(N)C(C)C)o2)c1 (stereo not given) | -9.25
CN(C)C(=O)CN1C(=O)CO[C@@H]2CN(c3ccccn3)C[C@H]21 | -7.96
CC(C)NCC1OCCc2cn(C)nc21 (stereo not given) | -6.64
CCn1ncc2c1C(COC)N(C(=O)c1ccc3c(c1)OCO3)CC2 (stereo not given) | -5.04
CNC(=O)CN1CCO[C@H]2CN(C(=O)C3CC3)C[C@H]21 | -2.66
COCCN1CCC2(C1)CN(c1ncccn1)C2 | -0.0538

Structure (SMILES) | cytotoxicity at 70.5 h [%]
Cc1ccc(NC(=O)c2nc3c(s2)CCCN3C(=O)C2CC2)cn1 | 3.07
COCCN1CCO[C@@H]2CN(C(=O)Cc3ccc(F)cc3)CC[C@@H]2C1 | 4.68
CC(=O)N1CCO[C@@H]2CN(C(=O)NCc3cccnc3)CC[C@@H]2C1 | -2.08
CN(C)C[C@H]1OC[C@@H]2CN(C(=O)NCc3cccc(F)c3)CC[C@@H]21 | -5.06
COCC(=O)NCC1Cn2nnc(-c3ccncc3)c2CO1 (stereo not given) | -3.5
CC(C)Nc1nc2c(c(NC3CC3)n1)CCN(Cc1nccn1C)CC2 | -1.1
O=C1[C@H]2CN(C3CCOC3)C[C@H]2CN1c1ccccc1 (stereo not given in full) | -1.16
O=C(NCC1COCc2c(-c3ccncc3)nnn2C1)[C@H]1CCCO1 (stereo not given in full) | -0.723
CN(C)S(=O)(=O)N1CC[C@]2(C[C@H](OCc3ccccn3)CO2)C1 | -0.384
O=C(CO)N1CCOC2(CCCN(c3ncc(F)cn3)C2)C1 (stereo not given) | -0.965
CN(C)S(=O)(=O)N1CC[C@]2(C[C@@H](OCc3ccccn3)CO2)C1 | -1.04
CCS(=O)(=O)N1CCC2(CCN(Cc3nccs3)CC2)CC1 | 15.2
O=C(c1ccsc1)N1CCc2onc(COc3ccccn3)c2C1 | -1.49
CCOCC(=O)N1CCC2(CC1)COCCN2CCOC | -1.68
O=C(Cc1cccs1)N1CCC2(CC1)COCCN2CC1CC1 | -8.87
COCC(=O)N1CCC2(CCN(Cc3ccc(C)cc3)CC2)CC1 | -11.5
O=S(=O)(C1CC1)N1CC[C@@H]2[C@@H]1CCN2Cc1cccs1 | -6.17
c1cc(CNCC2Cn3nncc3CO2)co1 (stereo not given) | -6.75
CCOCc1cnc2n1CCN(Cc1cccs1)C2C (stereo not given) | -8.03
COc1cc(N2CCc3ncnc(-c4ccncc4)c3CC2)ncn1 | -6.14
N#Cc1cccc(CN2CC[C@@H]3CO[C@@H](CN4CCCC4)[C@@H]3C2)c1 | -4.24
CN(C)CCOCc1nnc2n1CCN(Cc1ccco1)C2 | -1.46
CNC(=O)CN1CCO[C@H]2CN(CC3CC3)C[C@H]21 | -2.3
O=c1ccc2c(n1Cc1cccnc1)CCN(CC1CCOC1)CC2 (stereo not given) | -4.17
c1cncc(-c2ccc3c(c2)CCC32CCN(Cc3ccco3)CC2)c1 | -0.391
C[C@@H]1CN(C2CCOC2)C[C@]12CCN(c1cccnc1)C2=O (stereo not given in full) | -9.89
